Results on 12 molecules are retold here after US5073562A, “Alkoxy-substituted dihydrobenzopyran-2-carboxylic acids and derivatives thereof” (G. D. Searle & Co., priority 1990, dated 1991).

Assay [1] concerns Human neutrophils (LTB4 chemotaxis). The assay can be described thus: Modified Boyden Chamber Chemotaxis, LTB4. Details: key to Chemotaxis LTB4, inactive at the dose tested: IA: Inactive at the dose tested. Format: cell-based. The note with it: for Relative Potency, Chemotaxis LTB4: potency relative to the compound of Example 1(b), defined as 1.0, 3×10^-8 M LTB4, 40-90 minute, 37° C. Here is the method:
(§1) Human neutrophils were isolated from citrated peripheral blood using standard techniques of dextran sedimentation, followed by centrifugation on Histopaque® sterile solution (Sigma) or Ficoll-paque® (Pharmacia) and hypotonic lysis of erythrocytes. A final cell suspension of 3.4×10^6 neutrophils/ml of HEPES-buffered Hanks' balanced salt solution (HBSS, pH 7.3) was added to the upper well (0.8 ml) of a modified Boyden chamber (blind well). […] The number of neutrophils migrating into the lower chamber in the absence of chemoattractant was subtracted from the number of cells migrating in the presence of a chemoattractant. Inhibition of chemotaxis by test compounds was expressed as percent inhibition relative to uninhibited control. […] Pat. No. 4,889,871.

The next assay addresses T1, LTB4 Receptor (Homo sapiens, UniProt Q15722).
T1 construct: Neutrophils were purified from venous blood of normal human donors; endogenous in cells; host or cells: human peripheral blood neutrophils (purity >95%)
The assay can be described thus: LTB4 Receptor Binding Assay ((3H) LTB4, neutrophils). The note with it: potency relative to the compound of Example 1(b), defined as 1.0, 0.6×10^-9 M (3H) LTB4, 0° C., 45 minutes. Here is the method: The incubation was carried out at 0° C. for 45 minutes and terminated by adding 5 ml of ice-cold HBSS followed by rapid filtration of the incubation mixture under vacuum through GF/C glass fiber filters. The filters were further washed with 10 ml HBSS and radioactivity was determined. […] All data refer to specific binding. […] Pat. No. 4,889,871.

Assay [2] concerns Human neutrophils (fMLP chemotaxis). The assay can be described thus: Modified Boyden Chamber Chemotaxis, fMLP. Format: cell-based. The following applies: for Relative Potency, Chemotaxis fMLP: potency relative to the compound of Example 1(b), defined as 1.0. Here is the method: as §1

pIC50: −log10 of the molar value. A value given as a limit tells only on which side of the number the result lay.

T1 sequence (Q15722 whole entry): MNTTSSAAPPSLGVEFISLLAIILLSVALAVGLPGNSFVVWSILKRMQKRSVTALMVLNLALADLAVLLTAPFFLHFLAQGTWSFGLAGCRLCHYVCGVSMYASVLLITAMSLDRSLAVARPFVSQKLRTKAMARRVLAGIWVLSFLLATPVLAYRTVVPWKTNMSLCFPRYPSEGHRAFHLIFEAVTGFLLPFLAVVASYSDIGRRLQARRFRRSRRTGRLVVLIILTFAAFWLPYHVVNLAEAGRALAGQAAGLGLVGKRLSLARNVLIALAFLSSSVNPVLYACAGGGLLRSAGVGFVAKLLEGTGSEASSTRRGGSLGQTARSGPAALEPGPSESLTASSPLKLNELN

Turning to `CCCc1c(OCCCOc2ccc(-c3csc(SCc4ccccc4)n3)c(OC)c2CCC)ccc2c1OC(C(=O)O)CC2` (centres unmarked) [Example 29], in assay [1] (dose not given, 3×10^-8 M LTB4), the “Chemotaxis LTB4, inactive at the dose tested” value is “IA”. For the same molecule, the “Relative Potency, LTB4 Receptor Binding” value on LTB4 Receptor amounted to 0.02.

As to `CCCc1c(OCCCOc2ccc(-c3coc(C)n3)c(OC)c2CCC)ccc2c1OC(C(=O)O)CC2` (centres unmarked) [Example 14, 3,4-dihydro-7-[3-[3-methoxy-4-(2-methyl-4-oxazolyl)-2-propylphenoxy]propoxy]-8-propyl-2H-1-benzopyran-2-carboxylic acid], the “Relative Potency, Chemotaxis LTB4” value in assay [1] was under 0.1. In addition, at LTB4 Receptor, the “Relative Potency, LTB4 Receptor Binding” value worked out at 0.47.

In the case of `CCCc1c(OCCCOc2ccc(-c3csc(=S)[nH]3)c(OC)c2CCC)ccc2c1OC(C(=O)O)CC2` (centres unmarked) [Example 26, 3,4-Dihydro-7-[3-[4-(2,3-dihydro-2-thioxo-4-thiazolyl)-3-methoxy-2-propylphenoxy]propoxy]-8-propyl-2H-1-benzopyran-2-carboxylic acid], the “Relative Potency, LTB4 Receptor Binding” value on LTB4 Receptor was 0.51.

Consider `CCCc1c(OCCCOc2ccc(-c3csc(OC)n3)c(OC)c2CCC)ccc2c1OC(C(=O)O)CC2` (centres unmarked) [Example 24, 3,4-Dihydro-7-[3-[3-methoxy-4-(2-methoxy-4-thiazolyl)-2-propylphenoxy]propoxy]-8-propyl-2H-1-benzopyran-2-carboxylic acid], for which the “Relative Potency, Chemotaxis LTB4” value in assay [1] is under 0.23. Further, the “Relative Potency, LTB4 Receptor Binding” value at LTB4 Receptor amounted to 0.31.

For `CCCc1c(OCCCOc2ccc(-c3c[nH]cn3)c(OC)c2CCC)ccc2c1OC(C(=O)O)CC2` (centres unmarked) [Example 9], the “Relative Potency, Chemotaxis LTB4” value in assay [1] was 0.66. The “Relative Potency, LTB4 Receptor Binding” value at LTB4 Receptor turned out to be 1.0. The “Relative Potency, Chemotaxis fMLP” value in assay [2] is recorded as 0.45.

In the case of `CCCc1c(OCCCOc2ccc(-c3cocn3)c(OC)c2CCC)ccc2c1OC(C(=O)O)CC2` (centres unmarked) [Example 5, 3,4-Dihydro-7-[3-[3-methoxy-4-(4-oxazolyl)-2-propylphenoxy]propoxy]-8-propyl-2H-1-benzopyran-2-carboxylic acid], the “Relative Potency, Chemotaxis LTB4” value in assay [1] was found to be 2.2. The “Relative Potency, LTB4 Receptor Binding” value at LTB4 Receptor is recorded as 4.0. Besides, in assay [2], the “Relative Potency, Chemotaxis fMLP” value came to 0.73.

Regarding `CCCc1c(OCCCOc2ccc(C(C)=O)c(OC)c2CCC)ccc2c1OC(C(=O)O)CC2` (centres unmarked) [Example 1(b), 7-[3-(4-acetyl-3-methoxy-2-propylphenoxy)propoxy]-3,4-dihydro-8-propyl-2H-1-benzopyran-2-carboxylic acid, reference compound], the negative-log IC50 (pIC50) (commonly the IC50 on a negative log10 scale, so that one unit is a factor of ten) was 5.74 in assay [1] (Homo sapiens, Neutrophil, value in parentheses, 3×10^-8 M LTB4) and 5.27 in assay [2] (Homo sapiens, Neutrophil, value in parentheses).

Regarding `CCCc1c(OCCCOc2ccc(-c3csc(SC)n3)c(OC)c2CCC)ccc2c1OC(C(=O)O)CC2` (centres unmarked) [Example 28], the “Relative Potency, Chemotaxis LTB4” value in assay [1] is given as 0.05. The “Relative Potency, LTB4 Receptor Binding” value on LTB4 Receptor is recorded as 0.19.

Take `CCCc1c(OCCCOc2ccc(-c3csc(N)n3)c(OC)c2CCC)ccc2c1OC(C(=O)O)CC2` (centres unmarked) [Example 10, 7-[3-[4-(2-amino-4-thiazolyl)3-methoxy-2propylphenoxy]propoxy]3,4-dihydro-8-propyl-2H-1-benzopyran-2-carboxylic acid]: in assay [1], the “Relative Potency, Chemotaxis LTB4” value stood at 0.63. Further, on LTB4 Receptor, the “Relative Potency, LTB4 Receptor Binding” value was determined as 1.56. The “Relative Potency, Chemotaxis fMLP” value in assay [2] was 1.4.

`CCCc1c(OCCCOc2ccc(-c3cscn3)c(OC)c2CCC)ccc2c1OC(C(=O)O)CC2` (centres unmarked) [Example 12, 3,4-dihydro-7-[3-[3-methoxy-2-propyl-4-(4-thiazolyl)phenoxy]-propoxy]-8-propyl-2H-1-benzopyran-2-carboxylic acid]: in assay [1], the “Relative Potency, Chemotaxis LTB4” value was 3.0. On LTB4 Receptor, the “Relative Potency, LTB4 Receptor Binding” value is given as 4.5. Also, the “Relative Potency, Chemotaxis fMLP” value in assay [2] is 1.1.

Take `C=CCc1c(OCCCOc2ccc3c(c2CCC)OC(C(=O)O)CC3)ccc(-c2cscn2)c1OC` (centres unmarked) [Example 17, 3,4-dihydro-7-[3-[3-methoxy-2-(2-propenyl)-4-(4-thiazolyl)-phenoxy]propoxy]-8-propyl-2H-1-benzopyran-2-carboxylic acid]: in assay [1], the “Relative Potency, Chemotaxis LTB4” value was determined as 8.3. For the same molecule, the “Relative Potency, LTB4 Receptor Binding” value on LTB4 Receptor stood at 11.6. Also, the “Relative Potency, Chemotaxis fMLP” value in assay [2] is reported as 1.9.

For `CCCc1c(OCCCOc2ccc(-c3c[nH]c(SCc4ccccc4)n3)c(OC)c2CCC)ccc2c1OC(C(=O)O)CC2` (centres unmarked) [Example 8, 3,4-Dihydro-7-[3-[3-methoxy-4-[2-[(phenylmethyl)thio]-1H-imidazol-4-yl]-2-propylphenoxy]propoxy]-8-propyl-2H-1-benzopyran-2-carboxylic acid], the “Relative Potency, Chemotaxis LTB4” value in assay [1] amounted to 1.86. Further, the “Relative Potency, LTB4 Receptor Binding” value on LTB4 Receptor worked out at 2.65. Moreover, in assay [2], the “Relative Potency, Chemotaxis fMLP” value is 2.0.
